Biological target: activated ERK2 (Homo sapiens (Human), UniProt P28482)
Assay: Activated ERK2 kinase assay (AlphaScreen, ERKtide peptide phosphorylation)
Format: biochemical
Conditions: […] ERK2, 200 nM ERKtide peptide, 35 μM ATP, 30 min preincubation; read-out: ERK2 IC50
Text: Production of Activated ERK2 Protein:
Activated ERK2 protein was generated in insect cells by co-expression with a constitutively active form of MEK1. The ERK2 protein was expressed and purified as a nHis-PreScission-ERK2 tagged protein and then proteolytically processed to the full-length wild-type protein. […] Double-phosphorylated ERK2 protein was purified from the mixture by mono-Q column separation.
Activated ERK2 Kinase Assay:
A 16-point, half-log dilution series of compounds at 41× final concentration was used for generating IC50 curves. Compound dilution series were prepared in 100% DMSO. ERK2 was preincubated with compounds for 30 minutes at ambient temperature. Reaction was initiated by addition of a substrate cocktail of ERKtide peptide and ATP and was allowed to proceed for 2-3 hours at ambient temperature. Reaction was terminated by addition of 10 μL of a 2× stop buffer consisting of 100 mM Tris-Cl [pH 7.5], 25 mM EDTA, 0.01% Tween 20, 10 μg/mL of AlphaScreen Protein A Acceptor Beads, 10 μg/mL of Streptavidin Donor Beads (PerkinElmer, Waltham, Mass.), and 1.4 μg/mL phospho-EGF Receptor (Thr669) antibody (Cat #3056, Cell Signaling Technology, Danvers, Mass.). Terminated reactions were read, after overnight incubation in the dark, on an EnVision Multilabel Plate Reader (PerkinElmer, Waltham, Mass.), with excitation and emission wavelengths set to 680 nm and 570 nm, respectively. IC50 values were determined using a four-parameter fit.

activated ERK2, sequence (P28482 whole entry): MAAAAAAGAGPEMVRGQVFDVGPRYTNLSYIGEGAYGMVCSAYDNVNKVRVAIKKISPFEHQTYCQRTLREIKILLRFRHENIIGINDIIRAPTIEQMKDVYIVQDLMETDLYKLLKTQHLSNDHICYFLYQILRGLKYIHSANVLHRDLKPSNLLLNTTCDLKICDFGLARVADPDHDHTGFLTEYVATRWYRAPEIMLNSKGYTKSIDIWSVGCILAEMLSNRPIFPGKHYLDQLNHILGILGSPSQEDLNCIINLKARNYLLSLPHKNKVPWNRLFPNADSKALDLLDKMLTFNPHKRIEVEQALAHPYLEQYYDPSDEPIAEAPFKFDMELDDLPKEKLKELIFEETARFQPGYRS

Question: How did the IC50 turn out when `CC1(C)c2cnc(NC3CCOCC3)nc2CN1C(=O)NCc1ccc(Cl)cc1` [compound 28, N-(4-chlorobenzyl)-5,5-dimethyl-2-((tetrahydro-2H-pyran-4-yl)amino)-5H-pyrrolo[3,4-d]pyrimidine-6(7H)-carboxamide] was run?
Answer: The IC50 was 10 nM.

Question: `CC1(C)c2cnc(NC3CCOCC3)nc2CN1C(=O)NCC1CCCCC1` [compound 47, N-(cyclohexylmethyl)-5,5-dimethyl-2-((tetrahydro-2H-pyran-4-yl)amino)-5H-pyrrolo[3,4-d]pyrimidine-6(7H)-carboxamide] was tested. Which IC50 did it give?
Answer: The IC50 was 31 nM.

Question: With `C[C@H](NC(=O)N1Cc2nc(NC3CCOCC3)ncc2C1(C)C)c1ccccc1` [compound 40, (S)-5,5-dimethyl-N-(1-phenylethyl)-2-((tetrahydro-2H-pyran-4-yl)amino)-5H-pyrrolo[3,4-d]pyrimidine-6(7H)-carboxamide] as the molecule, how does the IC50 read?
Answer: Its IC50 is 799 nM.

Question: `CC1(C)c2cnc(Nc3ccc(F)cc3)nc2CN1C(=O)N[C@H](CO)c1ccccc1` [compound 52, (S)-2-((4-fluorophenyl)amino)-N-(2-hydroxy-1-phenylethyl)-5,5-dimethyl-5H-pyrrolo[3,4-d]pyrimidine-6(7H)-carboxamide] was tested. Which IC50 did it give?
Answer: Its IC50 is 107 nM.

Question: For `C[C@@H](NC(=O)N1Cc2nc(NC3CCOCC3)ncc2C1(C)C)c1cccc(S(C)(=O)=O)c1` [compound 131, (R)-5,5-dimethyl-N-(1-(3-(methylsulfonyl)phenyl)ethyl)-2-((tetrahydro-2H-pyran-4-yl)amino)-5H-pyrrolo[3,4-d]pyrimidine-6(7H)-carboxamide], which IC50 is on record?
Answer: Its IC50 is 9 nM.

Question: Which IC50 does the source give for `CN(C)C(=O)c1cccc(CNC(=O)N2Cc3nc(NC4CCOCC4)ncc3C2(C)C)c1` [compound 101, N-(3-(dimethylcarbamoyl)benzyl)-5,5-dimethyl-2-((tetrahydro-2H-pyran-4-yl)amino)-5H-pyrrolo[3,4-d]pyrimidine-6(7H)-carboxamide] here?
Answer: The IC50 was 492 nM.

Question: For `CC1(C)c2cnc(NC3CCOCC3)nc2CN1C(=O)NCc1ccc(C(F)(F)F)cc1` [compound 121, 5,5-dimethyl-2-((tetrahydro-2H-pyran-4-yl)amino)-N-(4-(trifluoromethyl)benzyl)-5H-pyrrolo[3,4-d]pyrimidine-6(7H)-carboxamide], which IC50 is on record?
Answer: The IC50 was 10 nM.

Question: Which IC50 does the source give for `O=C(N[C@H](CO)c1ccccc1)N1Cc2nc(NC3CCOCC3)ncc2C12CCC2` [compound 77, (S)-N-(2-hydroxy-1-phenylethyl)-2′-((tetrahydro-2H-pyran-4-yl)amino)spiro[cyclobutane-1,5′-pyrrolo[3,4-d]pyrimidine]-6′(7′H)-carboxamide] here?
Answer: Its IC50 is 13 nM.

Question: For `CC1(C)c2cnc(NC3CCOCC3)nc2CN1C(=O)N[C@@H]1CCCN(S(=O)(=O)c2ccc(Cl)cc2)C1` [compound 119, (R)-N-(1-((4-chlorophenyl)sulfonyl)piperidin-3-yl)-5,5-dimethyl-2-((tetrahydro-2H-pyran-4-yl)amino)-5H-pyrrolo[3,4-d]pyrimidine-6(7H)-carboxamide], which IC50 is on record?
Answer: Its IC50 is 156 nM.

Question: For `CC1(C)c2cnc(NC3CCOCC3)nc2CN1C(=O)NCc1ccc(Cl)c(F)c1` [compound 124, N-(4-chloro-3-fluorobenzyl)-5,5-dimethyl-2-((tetrahydro-2H-pyran-4-yl)amino)-5H-pyrrolo[3,4-d]pyrimidine-6(7H)-carboxamide], which IC50 is on record?
Answer: Its IC50 is 6 nM.

Question: For `Cc1ccc(CNC(=O)N2Cc3nc(NC4CCOCC4)ncc3C2(C)C)cc1` [compound 129, 5,5-dimethyl-N-(4-methylbenzyl)-2-((tetrahydro-2H-pyran-4-yl)amino)-5H-pyrrolo[3,4-d]pyrimidine-6(7H)-carboxamide], which IC50 is on record?
Answer: The IC50 was 21 nM.

Question: For `CC1(C)c2cnc(NC3CCOCC3)nc2CN1C(=O)N[C@@H]1CCN(Cc2cccc(Cl)c2)C1` [compound 104], which IC50 is on record?
Answer: The IC50 was 37 nM.

Question: Which IC50 does the source give for `CC1(C)c2cnc(NC3CCOCC3)nc2CN1C(=O)N[C@H](CO)c1cccc(S(C)(=O)=O)c1` [compound 117, (S)-N-(2-hydroxy-1-(3-(methylsulfonyl)phenyl)ethyl)-5,5-dimethyl-2-((tetrahydro-2H-pyran-4-yl)amino)-5H-pyrrolo[3,4-d]pyrimidine-6(7H)-carboxamide] here?
Answer: Its IC50 is 7 nM.

Question: `CC1(C)c2cnc(NC3CCOCC3)nc2CN1C(=O)N[C@H](CCO)c1ccccc1` [compound 138, (R)-N-(3-hydroxy-1-phenylpropyl)-5,5-dimethyl-2-((tetrahydro-2H-pyran-4-yl)amino)-5H-pyrrolo[3,4-d]pyrimidine-6(7H)-carboxamide] was tested. Which IC50 did it give?
Answer: The IC50 was 73 nM.

Question: `C[C@H](NC(=O)N1Cc2nc(NC3CCOCC3)ncc2C1(C)C)c1cc(F)cc(S(C)(=O)=O)c1` [compound 116, (S)-N-(1-(3-fluoro-5-(methylsulfonyl)phenyl)ethyl)-5,5-dimethyl-2-((tetrahydro-2H-pyran-4-yl)amino)-5H-pyrrolo[3,4-d]pyrimidine-6(7H)-carboxamide] was tested. Which IC50 did it give?
Answer: The IC50 was 457 nM.

Question: How did the IC50 turn out when `CC1(C)c2cnc(NC3CCOCC3)nc2CN1C(=O)NC1CC(CO)CN(Cc2ccccc2F)C1` (stereo not shown) [compound 147, N-(1-(2-fluorobenzyl)-5-(hydroxymethyl)piperidin-3-yl)-5,5-dimethyl-2-((tetrahydro-2H-pyran-4-yl)amino)-5H-pyrrolo[3,4-d]pyrimidine-6(7H)-carboxamide] was run?
Answer: The IC50 was 214 nM.

Question: For `CC1(C)c2cnc(NC3CCOCC3)nc2CN1C(=O)NCc1cccnc1` [compound 3, 5,5-dimethyl-N-(pyridin-3-ylmethyl)-2-((tetrahydro-2H-pyran-4-yl)amino)-5H-pyrrolo[3,4-d]pyrimidine-6(7H)-carboxamide], which IC50 is on record?
Answer: Its IC50 is 894 nM.

Question: For `CC1(C)c2cnc(NC3CCOCC3)nc2CN1C(=O)NCc1nc2ccccc2s1` [compound 30, N-(benzo[d]thiazol-2-ylmethyl)-5,5-dimethyl-2-((tetrahydro-2H-pyran-4-yl)amino)-5H-pyrrolo[3,4-d]pyrimidine-6(7H)-carboxamide], which IC50 is on record?
Answer: Its IC50 is 49 nM.

Question: Which IC50 does the source give for `CC1(C)c2cnc(NC3CCOCC3)nc2CN1C(=O)N[C@H](CN)c1ccccc1` [compound 32, (S)-N-(2-amino-1-phenylethyl)-5,5-dimethyl-2-((tetrahydro-2H-pyran-4-yl)amino)-5H-pyrrolo[3,4-d]pyrimidine-6(7H)-carboxamide] here?
Answer: The IC50 was 14 nM.

Question: `CC1(C)c2cnc(NC3CCCOC3)nc2CN1C(=O)N[C@H](CO)c1ccccc1` (stereo partly drawn) [compound 25, N-((S)-2-hydroxy-1-phenylethyl)-5,5-dimethyl-2-((tetrahydro-2H-pyran-3-yl)amino)-5H-pyrrolo[3,4-d]pyrimidine-6(7H)-carboxamide] was tested. Which IC50 did it give?
Answer: The IC50 was 193 nM.

Question: Which IC50 does the source give for `CC1(C)c2cnc(NC3CCOCC3)nc2CN1C(=O)NCc1cccc(C(N)=O)c1` [compound 88, N-(3-carbamoylbenzyl)-5,5-dimethyl-2-((tetrahydro-2H-pyran-4-yl)amino)-5H-pyrrolo[3,4-d]pyrimidine-6(7H)-carboxamide] here?
Answer: The IC50 was 11 nM.

Question: For `CC1(C)c2cnc(N[C@H]3CC[C@@H](O)CC3)nc2CN1C(=O)N[C@H](CO)c1ccccc1` [compound 62, N-((S)-2-hydroxy-1-phenylethyl)-2-(((1s,4R)-4-hydroxycyclohexyl)amino)-5,5-dimethyl-5H-pyrrolo[3,4-d]pyrimidine-6(7H)-carboxamide], which IC50 is on record?
Answer: Its IC50 is 896 nM.

Question: With `CC1(C)c2cnc(NC3CCOCC3)nc2CN1C(=O)N[C@@H]1CCCN(S(=O)(=O)c2ccccc2F)C1` [compound 41, (R)-N-(1-((2-fluorophenyl)sulfonyl)piperidin-3-yl)-5,5-dimethyl-2-((tetrahydro-2H-pyran-4-yl)amino)-5H-pyrrolo[3,4-d]pyrimidine-6(7H)-carboxamide] as the molecule, how does the IC50 read?
Answer: Its IC50 is 13 nM.

Question: `CC1(C)c2cnc(NCC3CCCCO3)nc2CN1C(=O)N[C@H](CO)c1ccccc1` (stereo partly drawn) [compound 72, N-((S)-2-hydroxy-1-phenylethyl)-5,5-dimethyl-2-(((tetrahydro-2H-pyran-2-yl)methyl)amino)-5H-pyrrolo[3,4-d]pyrimidine-6(7H)-carboxamide] was tested. Which IC50 did it give?
Answer: Its IC50 is 5310 nM.

Question: For `C[C@@H](NC(=O)N1Cc2nc(NC3CCOCC3)ncc2C1(C)C)c1cc(F)cc(S(C)(=O)=O)c1` [compound 115, (R)-N-(1-(3-fluoro-5-(methylsulfonyl)phenyl)ethyl)-5,5-dimethyl-2-((tetrahydro-2H-pyran-4-yl)amino)-5H-pyrrolo[3,4-d]pyrimidine-6(7H)-carboxamide], which IC50 is on record?
Answer: The IC50 was 2 nM.

Question: How did the IC50 turn out when `CC1(C)c2cnc(NC3CCOCC3)nc2CN1C(=O)NCc1ccc(S(=O)(=O)C(F)(F)F)cc1` [compound 137, 5,5-dimethyl-2-((tetrahydro-2H-pyran-4-yl)amino)-N-(4-((trifluoromethyl)sulfonyl)benzyl)-5H-pyrrolo[3,4-d]pyrimidine-6(7H)-carboxamide] was run?
Answer: The IC50 was 19 nM.

Question: Which IC50 does the source give for `CCS(=O)(=O)c1cccc(CNC(=O)N2Cc3nc(NC4CCOCC4)ncc3C2(C)C)c1` [compound 111, N-(3-(ethylsulfonyl)benzyl)-5,5-dimethyl-2-((tetrahydro-2H-pyran-4-yl)amino)-5H-pyrrolo[3,4-d]pyrimidine-6(7H)-carboxamide] here?
Answer: Its IC50 is 16 nM.

Question: With `CC1(C)c2cnc(NC3CCOCC3)nc2CN1C(=O)N[C@H]1CCCN(Cc2ccccc2F)C1` [compound 5, (S)-N-(1-(2-fluorobenzyl)piperidin-3-yl)-5,5-dimethyl-2-((tetrahydro-2H-pyran-4-yl)amino)-5H-pyrrolo[3,4-d]pyrimidine-6(7H)-carboxamide] as the molecule, how does the IC50 read?
Answer: Its IC50 is 15500 nM.
